Measurements from patent publication US9493506B2 (Enanta Pharmaceuticals, Inc., priority 2010, dated 2016).

How the values were obtained:
[1] = tested on: HCV replicon with a D168V mutation in a 1a-H77 background; assay: transient replicon assay, D168V mutation in 1a-H77 background; type: cell-based, hepatitis C virus (genotype 1a-H77); conditions: Hepatitis C virus, read-out: EC50 in a transient replicon assay with a D168V mutation in a 1a-H77 background
Procedure, shortened: (§1)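 Transient transfection of mutant replicon RNA (1a-H77 with NS2–NS5B, or 1b-N with NS3–NS5B plus E1202G/S2204I) by electroporation into IFN-cured Huh7 cells, plated at 7.5×10^3 cells per well in DMEM with 5% FBS. Serial compound dilutions added 4 h post-transfection (0.5% DMSO final).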

[2] = tested on: HCV replicon with a D168E mutation in a 1a-H77 background; assay: transient replicon assay, D168E mutation in 1a-H77 background; type: cell-based, hepatitis C virus (genotype 1a-H77); conditions: Hepatitis C virus, read-out: EC50 in a transient replicon assay with a D168E mutation in a 1a-H77 background
Procedure, shortened: as §1

[3] = tested on: HCV replicon with a R155K mutation in a 1b-N background; assay: transient replicon assay, R155K mutation in 1b-N background; type: cell-based, hepatitis C virus (genotype 1b-N); conditions: Hepatitis C virus, read-out: EC50 in a transient replicon assay with a R155K mutation in a 1b-N background
Method: Replicon cell lines can be maintained in Dulbecco's modified Eagles medium (DMEM) containing 100 IU/ml penicillin, […] streptomycin (Invitrogen), […] G418 (Invitrogen) and 10% (v/v) fetal bovine serum (FBS). Replicon-containing cells can be seeded into 96 well plates at a density of 5000 cells per well in 100 μl DMEM containing 5% FBS. The next day, the compound can be initially diluted in dimethyl sulfoxide (DMSO) to generate a 200× stock of the inhibitor in a series of 8 half-log dilutions. The dilution series can then be diluted 100-fold in the medium containing 5% FBS. […] The inhibitory effects of compounds against the replicons can be determined by measuring either the level of luciferase or HCV RNA. […] Luciferin solution (50 μl, Promega) is added, and luciferase activity is measured with a Victor II luminometer (Perkin-Elmer). To determine HCV RNA levels, RNA extractions can be performed using the CellsDirect kit (Invitrogen), and the HCV RNA copy number can be measured using the SuperScript III Platinum One-Step qRT-PCR system (Invitrogen) and primers specific to the HCV 5′ nontranslated region. Cytotoxicity can be determined by the 3-[4,5-dimethylhiazol-2-yl]-2,5-diphenyltetrazolium bromide (MTT) colorimetric assay as follows. […] The plates are incubated overnight and the optical density can be measured at 570 nm. […]

Structure (SMILES): CCc1nc2cccc(F)c2nc1O[C@@H]1C[C@H]2C(=O)N[C@]3(C(=O)NS(=O)(=O)C4(C)CC4)C[C@H]3/C=C\CCCCC[C@H](NC(=O)OC(C)(C)C)C(=O)N2C1 [Example 164, tert-butyl (2R,6S,13aS,14aR,16aS,Z)-2-(3-ethyl-8-fluoroquinoxalin-2-yloxy)-14a-(1-methylcyclopropylsulfonylcarbamoyl)-5,16-dioxo-1,2,3,5,6,7,8,9,10,11,13a,14,14a,15,16,16a-hexadecahydrocyclopropa[e]pyrrolo[1,2-a][1,4]diazacyclopentadecin-6-ylcarbamate]
- EC50 [1]: 50 to 250 nM
- EC50 [2]: 20 to 50 nM
- EC50 [3]: 1 to 10 nM
